The values that follow come from US12180476B2, “Use of PIWI-interacting RNA piR-hsa-211106” (Qingdao University, priority 2022, dated 2024).

Entries after “also recorded” stand apart in the source; their conditions may differ.

Series [1] concerns lung adenocarcinoma cells A549. Kind of series: CCK8 proliferation activity assay. It is filed as cell-based. To be noted: 0, 1, 2, 3, and 4 days after transfection, FIG. 1. As for the experimental part: (§1) This example related to a process of transfecting an agonist to lung adenocarcinoma cells: after the lung adenocarcinoma cells were passaged to a cell density of about 30-50%, the agonist was transfected to the lung adenocarcinoma cells by lipo3000. 5 μl (100 pmol) of the agonist was added to an EP tube containing 95 μl of a DMEM medium by pipetting and mixing, 5 μl of lipo3000 was added to the EP tube containing 95 μl of the DMEM medium by pipetting and mixing, the two materials were mixed at a volume ratio of 1:1 to form a transfection mixture, the mixture was allowed to stand at a room temperature for 20 min and added into a culture plate, and an analysis at gene and protein levels was conducted after 48 h.
A general note: Tetrazolium dyes change colour on reduction, which living cells bring about.

Series [2] concerns lung adenocarcinoma cells HCC2279. Kind of series: CCK8 proliferation activity assay. The format is cell-based. The note with it: 0, 1, 2, 3, and 4 days after transfection, FIG. 1. As to the method:
as §1

For series [3], the system named is lung adenocarcinoma cells A549. The experiment in a line: Edu staining proliferation assay. It is filed as cell-based. The note with it: after transfection for two days, FIGS. 2 and 3. As to the method:
as §1, with “h. […]” for “h.”

In series [4] the test system is lung adenocarcinoma cells HCC2279. Kind of series: Edu staining proliferation assay. It is filed as cell-based. The note with it: after transfection for two days, FIGS. 2 and 3. As to the method:
as §1, with “h. […]” for “h.”

For series [5], the system named is lung adenocarcinoma cells A549. Kind of series: Transwell chamber migration assay. The format is cell-based. To be noted: after transfection for two days, 24 h migration, FIGS. 4 and 5. As for the experimental part: as §1
For series [6], the system named is lung adenocarcinoma cells HCC2279. Kind of series: Transwell chamber migration assay. It is filed as cell-based. To be noted: after transfection for two days, 24 h migration, FIGS. 4 and 5. As for the experimental part:
as §1

For series [7], the system named is lung adenocarcinoma cells A549. Kind of series: Scratch experiment migration assay. To be noted: after transfection for two days, 0 h and 24 h after scratching, FIGS. 6 and 7. It is filed as cell-based. As to the method: as §1
Series [8] concerns lung adenocarcinoma cells HCC2279. Kind of series: Scratch experiment migration assay. It is filed as cell-based. To be noted: after transfection for two days, 0 h and 24 h after scratching, FIGS. 6 and 7. As to the method:
as §1

For series [9], the system named is lung adenocarcinoma cells A549. The experiment in a line: Apoptosis by flow cytometry (Annexin V-FITC/PI). It is filed as cell-based. The note with it: after transfection for two days, FIGS. 8 and 9. As for the experimental part: (§2) This example related to a process of transfecting an agonist to lung adenocarcinoma cells: after the lung adenocarcinoma cells were passaged to a cell density of about 30-50%, the agonist was transfected to the lung adenocarcinoma cells by lipo3000. […]
(§3) This example related to a detection process of apoptosis of lung adenocarcinoma cells A549 and HCC2279 by a flow cytometry: the lung adenocarcinoma cells were cultured, the cells in the experimental group were transfected with a PIWI-interacting RNA piR-hsa-211106, after transfection for two days, apoptosis was detected by Annexin V-FITC/PI (Shanghai YEASEN Biotechnology Co., Ltd): • (1) after the lung adenocarcinoma cells were digested with a trypsin without EDTA, centrifugation was conducted at 300 g and 4° C. for 5 min and the cells were collected; • (2) the cells were washed twice with a pre-cooled PBS, centrifugation was conducted at 300 g and 4° C. for 5 min each time and 1-5×10^5 cells were collected; • (3) the PBS was pipetted and discarded, and 1× binding buffer was added to resuspend the cells; • (4) annexin V-FITC and a PI staining solution were added, gentle mixing was conducted, and reaction was conducted in dark at room temperature for 10-15 min; and • (5) 1× binding buffer was added, even mixing was conducted, an obtained mixture was placed on ice, and detection was conducted with the flow cytometry within 1 h.

The test system of series [10] is lung adenocarcinoma cells HCC2279. Kind of series: Apoptosis by flow cytometry (Annexin V-FITC/PI). It is filed as cell-based. The note with it: after transfection for two days, FIGS. 8 and 9. As to the method: as §2, §3
For orientation: In flow cytometry, cells or beads pass a laser one at a time.

Series [11] deals with T1, pyruvate carboxylase (Homo sapiens, UniProt P11498).
T1 construct: 1×10^7 lung adenocarcinoma cells were harvested, lysed and subjected to an ultrasonic treatment; endogenous in cells
T1 sequence (P11498 21-1178): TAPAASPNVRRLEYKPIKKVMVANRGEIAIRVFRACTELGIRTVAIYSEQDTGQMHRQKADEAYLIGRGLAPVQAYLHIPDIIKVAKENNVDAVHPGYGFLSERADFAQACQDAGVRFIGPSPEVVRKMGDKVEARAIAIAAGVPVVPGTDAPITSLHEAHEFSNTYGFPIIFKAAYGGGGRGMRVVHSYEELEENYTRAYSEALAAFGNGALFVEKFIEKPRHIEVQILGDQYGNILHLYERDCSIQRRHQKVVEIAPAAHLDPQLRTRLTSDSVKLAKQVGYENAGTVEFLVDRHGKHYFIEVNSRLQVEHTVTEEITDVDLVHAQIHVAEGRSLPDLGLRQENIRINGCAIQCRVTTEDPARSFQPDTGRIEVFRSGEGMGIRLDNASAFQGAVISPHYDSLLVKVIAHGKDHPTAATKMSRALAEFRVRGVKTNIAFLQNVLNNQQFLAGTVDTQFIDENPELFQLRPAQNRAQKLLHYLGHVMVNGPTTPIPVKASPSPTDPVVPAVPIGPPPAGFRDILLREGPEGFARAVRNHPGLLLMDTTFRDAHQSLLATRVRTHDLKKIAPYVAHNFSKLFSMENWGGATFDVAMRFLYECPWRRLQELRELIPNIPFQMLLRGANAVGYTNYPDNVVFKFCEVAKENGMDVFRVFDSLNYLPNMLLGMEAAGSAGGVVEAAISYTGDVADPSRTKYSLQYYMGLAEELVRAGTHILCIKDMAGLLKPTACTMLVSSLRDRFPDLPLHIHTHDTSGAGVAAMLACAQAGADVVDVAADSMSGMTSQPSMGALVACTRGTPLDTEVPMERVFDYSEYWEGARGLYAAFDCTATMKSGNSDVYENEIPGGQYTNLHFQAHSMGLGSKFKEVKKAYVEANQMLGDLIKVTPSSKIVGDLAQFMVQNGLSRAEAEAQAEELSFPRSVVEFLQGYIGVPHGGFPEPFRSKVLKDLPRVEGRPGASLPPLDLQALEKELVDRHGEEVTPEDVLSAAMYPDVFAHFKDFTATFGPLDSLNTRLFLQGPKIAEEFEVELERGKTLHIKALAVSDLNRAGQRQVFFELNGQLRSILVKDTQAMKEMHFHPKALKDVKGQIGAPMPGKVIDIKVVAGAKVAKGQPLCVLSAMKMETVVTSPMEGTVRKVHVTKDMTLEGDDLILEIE
The experiment in a line: Biotin-coupled probe RNA pull-down assay with western blot. The format is binding. The note with it: biotinylated piR-hsa-211106 probe, lung adenocarcinoma cell lysate; FIG. 10.

In series [12] the test system is pyruvate carboxylase. Kind of series: qRT-PCR analysis of gene expression level in lung adenocarcinoma cells. It is filed as cell-based. To be noted: FIG. 11. As to the method: as §1, with “h. […]” for “h.”
Background: Real-time PCR tracks product formation cycle by cycle.

Series [13] deals with pyruvate carboxylase. Kind of series: Western blot analysis of protein expression level in lung adenocarcinoma cells. It is filed as cell-based. To be noted: GAPDH internal reference, FIG. 12. As for the experimental part: as §1, with “h. […]” for “h.”
the protein samples were separated by an SDS-PAGE electrophoresis, the separated proteins were transferred to a PVDF membrane, the membrane was blocked with 5% powdered skim milk for 1 h, the membrane was washed, an incubation with a primary antibody (PC, GAPDH) was conducted overnight in a 4° C. refrigerator, the membrane was washed, an incubation with a secondary antibody was conducted at room temperature for 1 h, the membrane was washed, a target band was obtained by ECL chemiluminescence method, the band was subjected to a grayscale scanning by using a Quantity One software and a GAPDH internal reference was used for correction.

The test system of series [14] is A549 cells. The experiment in a line: Tumor-bearing model of a nude mouse, intratumoral treatment. The format is in vivo, BALB/c nude mice. As to the method:
This example related to a process of constructing a tumor-bearing model of a nude mouse: 3- to 4-week-old BALB/c nude mice (SiPeiFu Laboratory Animal Technology Co., Ltd) were taken and used for an experiment after adapting to local conditions for 1 week, 2×10^7 of A549 cells were injected subcutaneously into left and right armpits of the mice, and when an implanted tumor reached 50 mm^3, a drug treatment was conducted.
This example related to a drug-targeted treatment process of a tumor-bearing model of a nude mouse: • The nude mice were divided into two groups: a cisplatin experimental group and a normal saline control group, with 5 nude mice in each group; • The nude mice in the experimental group were injected intraperitoneally with cisplatin (5 mg/kg body weight/week), 50 μM of a PIWI-interacting RNA piR-hsa-211106 agonist was injected directly into a tumor on a right side and piR-NC (Shanghai GenePharma Co., Ltd) was injected into a tumor on a left side as a control group of the cisplatin treatment group; • An equal volume of normal saline was injected intraperitoneally into the nude mice in the control group, the PIWI-interacting RNA piR-hsa-211106 agonist was used to treat the tumor as above, the PIWI-interacting RNA piR-hsa-211106 agonist was used for treatment every other day for 28 days, and the tumor volume was measured once a week; the mice were sacrificed at an end of the experiment, and xenografts were peeled off and photographed.

[15] abbreviates: injected into tumors in nude mice, versus control groups.

With “piR-hsa-211106: PIWI-interacting RNA, SEQ ID NO:1 TCCGGCTCGAAGGACTTCGTCTGTAATTTT; used as double-strand agonist with cholesterol, thio skeleton and methoxy modifications (cholesterol, phosphorothioate and 2'-OMe modifications, pattern not given here, duplex)”, the “cell proliferation activity (OD value at 450 nm, CCK8)” value in series [1] and in [2] was “significantly inhibit the proliferation” throughout. In addition, the “proportion of proliferating cells (Edu staining)” value in series [3] and in series [4] was “significantly inhibit the growth” in each case. Moreover, the “migration ability (Transwell chamber, migrated cells counted)” value in series [5] and in [6] was “significantly inhibit the migration ability” throughout. For the same substance, the “migration ability (scratch experiment, relative migration rate)” value in series [7] and in series [8] was “significantly inhibit the migration ability” each time. Besides, the “apoptosis (flow cytometry)” value in series [9] and in series [10] was “significantly cause the apoptosis” throughout. In [11], the “binding to pyruvate carboxylase (RNA pull-down)” value is given as “binds to the PC; also recorded: can bind to a pyruvate carboxylase”. Further, the “expression of pyruvate carboxylase (gene expression level, qRT-PCR)” value in [12] is on record as “significantly inhibit an expression”. Besides, the “expression of pyruvate carboxylase at a protein level (WB)” value in series [13] is listed as “can regulate an expression of a pyruvate carboxylase at a protein level”. Moreover, the “therapeutic effect compared with positive control cisplatin” value in [14] (50 μM agonist injected directly into tumor every other day for 28 days, cisplatin 5 mg/kg body weight/week intraperitoneally, FIGS. 13, 14 and 15) was “comparable to that of the positive control group treated with cisplatin; also recorded: comparable therapeutic effect as the positive control drug cisplatin”. Moreover, the “growth of lung adenocarcinoma in vivo” value in series [14] (A549 tumor in nude mice, agonist intratumoral every other day for 28 days) is reported as “capable of inhibiting growth of lung adenocarcinoma in vivo”. In addition, the “effect in combination with cisplatin” value in series [14] (agonist intratumoral plus cisplatin 5 mg/kg body weight/week intraperitoneally, 28 days) was “increases chemical sensitivity of the chemotherapeutic drug cisplatin and has a synergistic effect”. Further, in series [14] (setting [15]), the tumor volume entry is given as “smaller than those of the control groups”. In addition, the tumor weight result in series [14] (setting [15]) is given as “smaller than those of the control groups”.
